# Columns and labels:
# [1] = Stability (half-life) in 0.1 M phosphate buffer, pH 7.4, at 37° C., HPLC analysis; format: physicochemical; settings: pH 7.4, 37° C.
# Method: (§1) This stock solution was diluted 10 fold in either 0.1 M phosphate buffer, pH 7.4, or human plasma, and the working solution was placed in a water bath at 37° C. Samples had been taken every hour for the plasma and every couple of hours for the buffer.
# [2] = Stability (half-life) in human plasma at 37° C., HPLC analysis; format: in vitro ADME; settings: stock solution diluted 10 fold
# Method: as §1
SMILES,half-life at 0.1 mg/ml [1] [h],half-life at 0.1 mg/ml [2] [h]
CN1CC[C@]23c4c5ccc(OC(=O)Cc6ccccc6Nc6c(Cl)cccc6Cl)c4O[C@H]2[C@@H](O)C=C[C@H]3[C@H]1C5 [Inventive compound (10)],2.5 ± 0.5,0.35 ± 0.0167
COc1ccc2cc(C(C)C(=O)OCOC(=O)Oc3ccc4c5c3O[C@H]3[C@@H](O)C=CC6[C@@H](C4)N(C)CC[C@@]563)ccc2c1 (stereo partly shown) [Inventive compound (16)],7.6 ± 0.5,0.0583 ± 0.01

# Source: patent US20030022876A1, “Sustained-release analgesic compounds” (priority 2001, published 2003)
